Laboratory results reported in US8252796B2, “1-butyl-2-hydroxyaralkyl piperazine derivatives and the uses as anti-depression medicine thereof” (CSPC Zhonggi Pharmaceutical Technology (Shijiazhuang) Co. …, priority 2008, dated 2012).
Like-named read-outs stand apart in the source and are kept apart here.

What was measured:
[1] = target: T1, reuptake of 5-HT by brain synaptosomes (prefrontal cortex) (Rattus norvegicus, UniProt P31652); test: Inhibition of [3H]5-HT reuptake by rat brain synaptosomes, single concentration (Example 35); type: biochemical; settings: test substance 10 μmol/L; inhibitory rate of 0.1 mM venlafaxine taken as 100%
T1 construct: from tissue; host or cells: rat prefrontal cortex synaptosomes
T1 sequence (P31652 whole entry): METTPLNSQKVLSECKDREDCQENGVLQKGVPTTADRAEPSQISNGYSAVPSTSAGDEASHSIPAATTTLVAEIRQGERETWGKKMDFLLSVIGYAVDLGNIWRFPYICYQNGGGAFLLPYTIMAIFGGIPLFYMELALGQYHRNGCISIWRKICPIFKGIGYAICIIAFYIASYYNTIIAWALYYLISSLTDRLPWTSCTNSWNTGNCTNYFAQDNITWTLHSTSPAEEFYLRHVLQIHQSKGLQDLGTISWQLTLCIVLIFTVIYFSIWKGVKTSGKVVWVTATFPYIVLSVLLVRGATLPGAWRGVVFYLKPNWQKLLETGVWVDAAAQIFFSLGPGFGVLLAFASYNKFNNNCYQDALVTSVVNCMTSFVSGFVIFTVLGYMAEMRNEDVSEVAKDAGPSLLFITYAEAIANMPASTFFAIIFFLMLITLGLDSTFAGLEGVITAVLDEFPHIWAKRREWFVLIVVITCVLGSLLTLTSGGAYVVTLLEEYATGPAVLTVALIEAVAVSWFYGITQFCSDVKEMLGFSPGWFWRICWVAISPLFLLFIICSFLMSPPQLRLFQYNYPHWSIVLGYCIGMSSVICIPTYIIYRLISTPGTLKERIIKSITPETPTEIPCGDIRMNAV
Experimental: (§1) Studies on the reuptake of monoamine neurotransmitters by brain synaptosomes was performed, which is a currently important mean adopted in the worldwide in pharmacological studies of central nervous. This method can not only be used to study the action mechanism of a drug, but also be used for screening new drugs acting by this mechanism.
(§2) Male SD rats were sacrificed by cervical dislocation and then the brains thereof were taken out rapidly by decollation and placed on ice. Related rain tissues (for [^3H]5-HT and [^3H]NA reuptake experiment, prefrontal cortex was taken; for [^3H]DA reuptake experiment, striatum was taken) were separated and weighed. 10 times (V/W) of 0.32 mol/L ice-cold sucrose solution was added and was homogenized electrically with glass-teflon. The homogenate was centrifugated at 4° C. at 1000 g×10 min. Then the supernatant was taken and centrifugated at 4° C. at 17000 g×20 min. The precipitation was suspended in 30 volume of KRH Buffer (125 mM NaCl, 4.8 mM KCl, 1.2 mM CaCl2, 1.2 mM MgSO4, 1.0 mM KH2PO4, 22 mM NaHCO3, 25 mM HEPES, 10 mM Glucose, 10 μM Pargyline, 0.2 mg/ml Ascorbic Acid) and then was preserved in an ice bath for use. (for NA reuptake experiment, the cortex needed was suspended in 20 volume of KRH Buffer)
(§3) Stock solution of the test substance was thawed immediately before use and diluted with KBH Buffer to 100 μmol/L, 50 μl thereof was added in 500 μl of total reaction system, and the final concentration was 10 μmol/L. Then 50 μl suspended synaptic prepared above was added and mixed evenly, incubated in water bath for 30 min at 37° C. Then […] [^3H] 5-HT (50 nmol/L [^3H]DA or […] [^3H]NA) was added. After incubated at 37° C. for 10 min, the reaction system was immediately taken out and the reaction was stopped by adding 2 ml of ice-cold 150 mmol/L Tris-HCl buffer solution. The samples were collected on the circular fiberglass membrane by vacuum filtration, and the membrane was washed 3 times with 3 ml of ice-cold Tris-HCl buffer solution. The filtration membrane was removed, baked for 15 min in a far-infrared oven and placed into an EP tube. 1.5 ml scintillation fluid was added overnight and was tested by liquid scintillation counter. For the solvent control total binding tube and the non-specific binding tube, no test substance was added; for the total binding tube, 50 μl solvent was added.

[2] = target: T2, reuptake of NA by brain synaptosomes (prefrontal cortex) (Rattus norvegicus, UniProt Q9WTR4); test: Inhibition of [3H]NA reuptake by rat brain synaptosomes, single concentration (Example 35); type: biochemical; settings: test substance 10 μmol/L; inhibitory rate of 0.1 mM venlafaxine taken as 100%
T2 construct: from tissue; host or cells: rat prefrontal cortex synaptosomes
T2 sequence (Q9WTR4 1-597): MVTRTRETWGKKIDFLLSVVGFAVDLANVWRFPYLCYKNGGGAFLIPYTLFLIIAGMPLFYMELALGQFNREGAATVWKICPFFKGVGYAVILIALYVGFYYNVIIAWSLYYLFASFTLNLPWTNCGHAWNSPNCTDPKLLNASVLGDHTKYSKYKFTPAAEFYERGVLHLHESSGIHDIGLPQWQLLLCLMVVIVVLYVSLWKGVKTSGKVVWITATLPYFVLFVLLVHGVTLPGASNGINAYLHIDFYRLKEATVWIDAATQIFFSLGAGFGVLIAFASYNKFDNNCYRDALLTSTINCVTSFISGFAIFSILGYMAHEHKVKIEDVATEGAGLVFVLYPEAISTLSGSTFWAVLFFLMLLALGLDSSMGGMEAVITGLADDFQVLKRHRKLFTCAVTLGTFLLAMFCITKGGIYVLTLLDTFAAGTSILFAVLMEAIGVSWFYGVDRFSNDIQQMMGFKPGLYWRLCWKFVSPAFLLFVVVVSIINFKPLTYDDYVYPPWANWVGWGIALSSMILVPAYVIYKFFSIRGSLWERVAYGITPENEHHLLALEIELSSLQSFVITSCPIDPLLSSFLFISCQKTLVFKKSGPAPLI
Experimental: as §1, §2, §3

[3] = target: T3, reuptake of DA by brain synaptosomes (striatum) (Rattus norvegicus, UniProt P23977); test: Inhibition of [3H]DA reuptake by rat brain synaptosomes, single concentration (Example 35); type: biochemical; settings: test substance 10 μmol/L; inhibitory rate of 0.1 mM 6-hydroxy DA taken as 100%
T3 construct: from tissue; host or cells: rat striatum synaptosomes
T3 sequence (P23977 whole entry): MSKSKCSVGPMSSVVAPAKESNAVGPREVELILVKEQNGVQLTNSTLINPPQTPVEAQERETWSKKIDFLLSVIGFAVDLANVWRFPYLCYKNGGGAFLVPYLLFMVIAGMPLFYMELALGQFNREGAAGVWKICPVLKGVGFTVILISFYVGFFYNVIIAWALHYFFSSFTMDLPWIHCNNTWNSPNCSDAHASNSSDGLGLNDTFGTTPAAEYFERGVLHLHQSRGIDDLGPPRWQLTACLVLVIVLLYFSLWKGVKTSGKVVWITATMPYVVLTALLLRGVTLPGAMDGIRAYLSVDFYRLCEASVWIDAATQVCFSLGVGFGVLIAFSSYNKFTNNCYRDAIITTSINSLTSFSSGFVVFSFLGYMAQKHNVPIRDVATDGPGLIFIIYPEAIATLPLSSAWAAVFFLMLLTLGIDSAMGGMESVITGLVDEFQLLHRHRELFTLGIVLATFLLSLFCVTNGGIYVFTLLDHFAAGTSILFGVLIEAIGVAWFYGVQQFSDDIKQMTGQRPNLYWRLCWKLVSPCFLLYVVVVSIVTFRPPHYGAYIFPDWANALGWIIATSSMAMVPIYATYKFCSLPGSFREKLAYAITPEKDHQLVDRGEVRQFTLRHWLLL
Experimental: as §1, §2, §3

ICR mice = test: Mice Forced Swimming Test (in vivo antidepression activity); settings: for swimming test: immobility time: n = 12, mean±SD
[4] = target: T4, reuptake of [3H]5-HT by prefrontal cortex synaptosomes (Rattus norvegicus, UniProt P31652); test: IC50 for inhibiting reuptake of [3H]5-HT by brain synaptosomes (Example 36); type: biochemical; settings: mean, n = 3~4
T4 construct: from tissue; host or cells: rat prefrontal cortex synaptosomes
T4 sequence (P31652 whole entry): as the sequence (P31652 whole entry) above
Experimental: as §2, with “The precipitation was suspended in 30 volume of KRH Buffer (125 mM NaCl, 4.8 mM KCl, 1.2 mM CaCl2, 1.2 mM MgSO4, 1.0 mM KH2PO4, 22 mM NaHCO3, 25 mM HEPES, 10 mM Glucose, 10 μM Pargyline, 0.2 mg/ml Ascorbic Acid) and then was preserved in an ice bath for use.” left out
(§4) The compounds were used for the studies on inhibition effect (IC50) on reuptake of [^3H]5-HT/NA/DA. At least 5 concentrations each time were settled for each test compound. Each concentration was determined by the average of double twin tubes and the test was repeated for more than 3 times. A series of concentrations of the compounds were prepared by gradient dilution before use. 50 μl thereof was added in total reaction system. Then 50 μl suspended synaptic membrane was added and mixed evenly, incubated in water bath at 37° C. for 30 min. Then 10 nmol/L [^3H] 5-HT (or 50 nmol/L [^3H]DA or 40 nmol/L [^3H]NA) was added and incubated in water bath at 37° C. for 10 min (for [^3H]NA, incubated for 5 min). For the [^3H]5-HT reuptake experiment, 50 μL of fluoxetine (100 μmol/L) was added to the non-specific binding tube; for the [^3H]DA reuptake experiment, 50 μL of cocaine (600 μmol/L) was added to the non-specific binding tube; for the [^3H]NA reuptake experiment, 50 μL of desipramine (100 μmol/L) was added to the non-specific binding tube; for the solvent control, solvent was added to the total binding tube, but no test compound added.
(§5) Sigmoidal curve fitting was performed for the data obtained from all of the test drugs by Origin 6.1, and the IC50 value was calculated.

[5] = target: T5, reuptake of [3H]NA by prefrontal cortex synaptosomes (Rattus norvegicus, UniProt Q9WTR4); test: IC50 for inhibiting reuptake of [3H]NA by brain synaptosomes (Example 36); type: biochemical; settings: mean, n = 3~4
T5 construct: from tissue; host or cells: rat prefrontal cortex synaptosomes
T5 sequence (Q9WTR4 1-597): as the sequence (Q9WTR4 1-597) above
Experimental: as §2
(§6) 1. Preparation of Rat Brain Synaptosomes (the Same as Example 35)
as §4, §5

[6] = target: T6, reuptake of [3H]DA by striatum synaptosomes (Rattus norvegicus, UniProt P23977); test: IC50 for inhibiting reuptake of [3H]DA by brain synaptosomes (Example 36); type: biochemical; settings: mean, n = 3~4
T6 construct: from tissue; host or cells: rat striatum synaptosomes
T6 sequence (P23977 whole entry): as the sequence (P23977 whole entry) above
Experimental: as §2, §6, §4, §5

[7] = Pharmacokinetics and bioavailability, single i.v. and oral administration in SD rat; type: in vivo; settings: male, plasma; for Cmax: read-out: Cmax; for AUC (0-t): read-out: AUC (0-t); for half-life: read-out: half life (T½) (converted)
Experimental: To study the pharmacokinetics parameters and the bioavailability of VIII-9, VIII-10 and SIPI5286 when single i.v. and oral administration in SD rat
Eighteen male rats were randomized into 6 groups and were administrated with the three compounds via i.v. and oral route, respectively. The dosage was 10 mg/kg (IV) and 50 mg/kg (PO). The test substance was dissolved in the solution of 5% DMSO/95% HP-β-CD aqueous solution (30%), and were administrated to the animal via i.v. and oral route. Blood plasma was collected at a serial of time points after i.v. and oral administration, and the blood drug concentrations were determined by LC/MS/MS. Then the pharmacokinetics parameters and the bioavailability were calculated based on the blood drug concentrations.

Question: Which “Inhibition on the reuptake of 5-HT(%)” value [1] does the source give for `CCCC[C@@H]([C@@H](O)c1ccc2c(Cl)c(OC)ccc2c1)N1CCN(c2ccccc2OC)CC1` (racemic) [VIII-4, (1SR,2SR)-N^1-o-methoxylphenyl-N^4-[1-butyl-2-(5′-chloro-6′-methoxyl-2′-naphthyl)hydroxyethyl]piperazine] here?
Answer: The value was 23%.

Question: What about the “inhibition on the reuptake of NA(%)” value [2] of the same compound?
Answer: The value was 146.5%.

Question: What about the “inhibition on the reuptake of DA(%)” value [3] of the same compound?
Answer: Its value is 68%.

Question: Which results are given for `CCCC[C@H]([C@@H](O)c1ccc2c(Cl)c(OC)ccc2c1)N1CCN(C(c2ccccc2)c2ccccc2)CC1` (racemic) [VIII-19, (1SR,2RS)-N^1-benzhydryl-N^4-[1-butyl-2-(5′-chloro-6′-methoxyl-2′-naphthyl)hydroxyethyl]piperazine]?
Answer: Inhibition on the reuptake of 5-HT(%) [1]: 73.4%; inhibition on the reuptake of NA(%) [2]: 103.6%; inhibition on the reuptake of DA(%) [3]: 95%

Question: For `CCCC[C@H]([C@@H](O)c1ccc2c(Cl)c(OC)ccc2c1)N1CCN(CC=Cc2ccccc2)CC1` (racemic) [VIII-21, (1SR,2RS)-N^1-cinnamyl-N^4-[1-butyl-2-(5′-chloro-6′-methoxyl-2′-naphthyl)hydroxyethyl]piperazine], which “Inhibition on the reuptake of 5-HT(%)” value [1] is on record?
Answer: The value was 81%.

Question: What about the “inhibition on the reuptake of NA(%)” value [2] of the same compound?
Answer: The value was 87.5%.

Question: What about the “inhibition on the reuptake of DA(%)” value [3] of the same compound?
Answer: Its value is 90%.

Question: For `NCCc1cc(O)c(O)cc1O` [6-hydroxy DA, reference compound], which “inhibition on the reuptake of DA(%)” value [3] is on record?
Answer: Its value is 100%.

Question: Which “Inhibition on the reuptake of 5-HT(%)” value [1] does the source give for `CCCC[C@@H]([C@@H](O)c1ccc2c(Cl)c(OC)ccc2c1)N1CCN(CC=Cc2ccccc2)CC1` (racemic) [VIII-22, (1SR,2SR)-N^1-cinnamyl-N^4-[1-butyl-2-(5′-chloro-6′-methoxyl-2′-naphthyl)hydroxyethyl]piperazine] here?
Answer: Its value is 82.3%.

Question: What about the “inhibition on the reuptake of NA(%)” value [2] of the same compound?
Answer: Its value is 78.9%.

Question: And the “inhibition on the reuptake of DA(%)” value [3]?
Answer: The value was 94%.

Question: What does the source list for `COc1ccc(C(CN(C)C)C2(O)CCCCC2)cc1` (centres unmarked) [venlafaxine, reference compound]?
Answer: inhibition on the reuptake of NA(%) [2]: 100%; swimming test: immobility time (ICR mice; one week oral administration, 50 mg/kg): 83.5 ± 29.0 s

Question: For `COc1ccc2cc([C@@H](O)[C@H](C)N3CCN(Cc4ccccc4)CC3)ccc2c1Cl` [SIPI5286, reference compound], which IC50 [4] is on record?
Answer: Its IC50 is 12 nM.

Question: And the IC50 [5]?
Answer: Its IC50 is 185 nM.

Question: And the IC50 [6]?
Answer: The IC50 was 1150 nM.

Question: What about the ED50 (ICR mice; Mus musculus, single oral administration) of the same compound?
Answer: Its ED50 is 28.9 mg/kg.

Question: And the “swimming test: immobility time” value (ICR mice; one week oral administration, 10.4 mg/kg)?
Answer: The value was 123.8 ± 21.68 s.

Question: What about the “swimming test: immobility time” value (ICR mice; one week oral administration, 17.3 mg/kg) of the same compound?
Answer: Its value is 102.9 ± 37.94 s.

Question: What about the “swimming test: immobility time” value (ICR mice; one week oral administration, 28.8 mg/kg) of the same compound?
Answer: The value was 97.2 ± 28.33 s.

Question: And the “swimming test: immobility time” value (ICR mice; one week oral administration, 48 mg/kg)?
Answer: Its value is 95.5 ± 27.0 s.

Question: And the “swimming test: immobility time” value (ICR mice; single oral administration, 10.4 mg/kg)?
Answer: The value was 107.9 ± 37.19 s.

Question: And the “swimming test: immobility time” value (ICR mice; single oral administration, 17.3 mg/kg)?
Answer: The value was 105.4 ± 33.11 s.

Question: What about the “swimming test: immobility time” value (ICR mice; single oral administration, 28.8 mg/kg) of the same compound?
Answer: Its value is 92.1 ± 23.11 s.

Question: And the “swimming test: immobility time” value (ICR mice; single oral administration, 48 mg/kg)?
Answer: Its value is 90.1 ± 26.02 s.

Question: And the Cmax ([7]; iv, i.v. 10 mg/kg, (5 min))?
Answer: The Cmax was 13900 ng/mL.

Question: And the AUC (0-t) ([7]; iv, i.v. 10 mg/kg)?
Answer: Its AUC (0-t) is 12600 ng·h/mL.

Question: What about the half-life ([7]; iv, i.v. 10 mg/kg) of the same compound?
Answer: Its half-life is 3.41 h.

Question: What about the bioavailability ([7]; oral 50 mg/kg vs i.v. 10 mg/kg, read-out: bioavailability) of the same compound?
Answer: The bioavailability was 51.6%.

Question: What about the AUC (0-t) ([7]; oral 50 mg/kg) of the same compound?
Answer: The AUC (0-t) was 30300 ng·h/mL.

Question: And the Cmax ([7]; oral 50 mg/kg)?
Answer: The Cmax was 6860 ng/mL.

Question: And the Tmax ([7]; oral 50 mg/kg, read-out: Tmax)?
Answer: The Tmax was 0.5 h.

Question: What about the half-life ([7]; oral 50 mg/kg) of the same compound?
Answer: Its half-life is 5.71 h.

Question: Which “Inhibition on the reuptake of 5-HT(%)” value [1] does the source give for `CCCC[C@@H]([C@H](O)c1ccc2c(Cl)c(OC)ccc2c1)N1CCN(c2ccccc2OC)CC1` (racemic) [VIII-3, (1SR,2RS)-N^1-o-methoxylphenyl-N^4-[1-butyl-2-(5′-chloro-6′-methoxyl-2′-naphthyl)hydroxyethyl]piperazine] here?
Answer: The value was 65.1%.

Question: What about the “inhibition on the reuptake of NA(%)” value [2] of the same compound?
Answer: Its value is 144%.

Question: And the “inhibition on the reuptake of DA(%)” value [3]?
Answer: Its value is 96%.

Question: Which “Inhibition on the reuptake of 5-HT(%)” value [1] does the source give for `CCCC[C@H]([C@H](O)c1ccc2c(Cl)c(OC)ccc2c1)N1CCN(C(c2ccccc2)c2ccccc2)CC1` (racemic) [VIII-20, (1SR,2SR)-N^1-benzhydryl-N^4-[1-butyl-2-(5′-chloro-6′-methoxyl-2′-naphthyl)hydroxyethyl]piperazine] here?
Answer: Its value is 0%.

Question: What about the “inhibition on the reuptake of NA(%)” value [2] of the same compound?
Answer: The value was 78%.

Question: What about the “inhibition on the reuptake of DA(%)” value [3] of the same compound?
Answer: The value was 57%.

Question: Which results are given for `COc1ccc2cc(C(O)C(C)N3CCN(Cc4ccccc4)CC3)ccc2c1Cl` (centres unmarked) [SIPIyy24, N^1-benzyl-N^4-[1-methyl-2-(5′-chloro-6′-methoxyl-2′-naphthyl) hydroxyethyl]piperazine, reference compound]?
Answer: IC50 [4]: 200 nM; IC50 [5]: 1000 nM; IC50 [^3H]DA reuptake [6]: No activity detected
